Assay [1] relates to gastrointestinal α-amylase, sucrase, maltase. As to conditions: cited from earlier work.
For a further assay, the system named is DENV2. Briefly: Lethal ADE mouse model of viremia. The class given is in vivo. How it is done:
To model ADE, mice were injected IP (intraperitoneal) with […] of mouse monoclonal antibody against the (DENV) E protein (4G2 clone) one day prior to infection. (9) For treatment, celgosivir was injected IP once or twice daily for a total of 5 days. Mice were monitored every day till Day 12 post infection. The data were plotted as Kaplan-Meier curves using Prism 5.0 software.
To evaluate the effect of dose and dose schedule, four drug regimens were studied in the ADE viremia model: 10, 25 and 50 mg/kg BID and 100 mg/kg QD (once daily). For the BID schedule, survival increased with increasing dose with survival rates of 13%, 63% and 100% for 10, 25, and 50 mg/kg BID.
Even when treatment was delayed (FIG. 5A), celgosivir (50 mg/kg BID) exerted a protective effect. In this experiment, survival at Day 12 was 100%, 75%, and 50% when treatment was immediate, delayed 24 hr or delayed 48 hr after DENV2 infection, respectively, in the ADE model; by contrast, none (0%) of the sham-treated mice survived past day 5 (FIG. 5B). Viremia, as determined by plaque assay, in celgosivir-treated mice (50 mg/kg BID) was 8.3% of levels in sham-treated mice after only 1 day of dosing. By study day 3, viremia had increased in untreated mice by more than 7-fold.

The next assay relates to DENV2 (TSV01 strain). Briefly: Cell-based flaviviral immunodetection assay (CFI), DENV2. The conditions noted are these: Dengue virus, DENV2, BHK-21, 48 h, DENV2, BHK21 cells. The method, then:
BHK21 cells were seeded at 1.3×104 in 96-well plate and incubated overnight at 37° C. in 5% CO2 incubator. Confluent monolayer of BHK21 cells were infected with DENV2 (TSV01 strain) at an MOI (multiplicity of infection) 0.3 in the presence of various concentrations of test compounds and incubated for 1 hour at 37° C. in 5% CO2 incubator. Infected cells were incubated with test compounds for another 48 hours at 37° C. in 5A CO2. Cells were fixed with methanol and mouse monoclonal antibody 4G2 was used to detect DENV E protein, which was quantified using a secondary anti-mouse antibody conjugated with horseradish peroxidase (HRP). Absorbance was read at 450 nm and dose-response curve was plotted accordingly. The 50% effective concentration (EC50), that is, the concentration of the test compound that decreased the level of viral E protein production by 50%, was calculated by nonlinear regression analysis.

“And” between values parts separate entries of the source, which are not always exact repeats. Equal values may be shown once. “Also recorded” adds a separate entry of the source.

The EC50 is the concentration that produces a half-maximal response. Lower therefore signals an effect from little substance. Take `CCCC(=O)O[C@H]1CN2CC[C@H](O)[C@@H]2[C@@H](O)[C@@H]1O.Cl` [Celgosivir, celgosivir]: the “inhibition of gastrointestinal enzymes, comparison” value in assay [1] is “weaker inhibitor than castanospermine”. In addition, the “survival at Day 12” value was 12% and 13% with DENV2 (10 mg/kg BID for 5 days); 62% and 63% in the assay on DENV2 (25 mg/kg BID for 5 days); 100% in the assay with DENV2 (50 mg/kg BID for 5 days, immediate treatment); 75% in the assay on DENV2 (50 mg/kg BID, treatment delayed 24 hr); 50% with DENV2 (50 mg/kg BID, treatment delayed 48 hr); 0% with DENV2 (100 mg/kg once daily (QD)). Moreover, the “viremia, of levels in sham-treated mice” value in the assay with DENV2 (50 mg/kg BID, after 1 day of dosing, plaque assay) was 8.3%; in the assay with DENV2 (50 mg/kg BID, study day 3, delayed 24 hr), 26%; in the assay on DENV2 (50 mg/kg BID, study day 3, delayed 48 hr), 69%; in the assay with DENV2 (50 mg/kg BID, study day 3, immediate treatment), 17%. Also, the “survival (in words)” value in the assay on DENV2 (100 mg/kg once daily (QD)) is listed as “no mice survived past day 6; also recorded: none surviving past Day 6”. This molecule returned an EC50 with DENV2 (TSV01 strain) of 220 nM.

Source of the values: patent US10517854B2, “Dosing regiments of celgosivir for the treatment of dengue” (60 Degrees Pharmaceuticals, LLC, priority 2013, dated 2019).
